These results are taken from patent US8871934B2, “Fluorene compound and pharmaceutical use thereof” (Japan Tobacco Inc., priority 2008, dated 2014).

The target of the assay is human PDHK2 (hPDHK2) (Homo sapiens (Human), UniProt Q15119). Kind of assay: Inhibitory action of PDHK activity in vitro (kinase reaction, residual PDH activity measured). Format: biochemical.
Setting [1] is: PDHK inhibitory activity (class symbol).
[2] abbreviates: read-out: PDHK inhibitory activity IC50.
Where [3] appears, read: read-out: PDHK inhibitory activity (class symbol).

Where two headings read alike, the source gives them in different places. Bounds are passed on as bounds.

Regarding `O=C(O)CCCOc1cc(-c2cnco2)c2c(c1)C(O)(C(F)(F)F)c1ccccc1-2` (centres unmarked) [compound 613], the IC50 runs as follows: under setting [1], less than 100 nM; under setting [2], 76 nM.
As to `OCCn1cc(-c2cc(CO)c3c(c2)C(O)(C(F)(F)F)c2ccccc2-3)cn1` (centres unmarked) [compound 615], the IC50 was 100 to 1000 nM under setting [1] and 105 nM under setting [2].
For the molecule `COC(=O)c1cc(Cl)cc2c1-c1ccccc1C2(O)C(F)(F)F` (centres unmarked) [compound 616], the IC50 under setting [1] was in the range of 100 to 1000 nM and the IC50 under setting [2] was 192 nM.
In the case of `CCn1cc(-c2cc(CO)c3c(c2)C(O)(C(F)(F)F)c2ccccc2-3)cn1` (centres unmarked) [compound 618], the IC50 is, setting by setting: under setting [1], less than 100 nM; under setting [2], 56 nM.
Turning to `OCCn1cc(-c2cc(CO)cc3c2-c2ccccc2C3(O)C(F)(F)F)cn1` (centres unmarked) [compound 620], the IC50 was less than 100 nM under setting [1] and 65 nM under setting [2].
As to `CC(C)n1cc(-c2cc(CO)c3c(c2)C(O)(C(F)(F)F)c2ccccc2-3)cn1` (centres unmarked) [compound 621], the IC50 was less than 100 nM under setting [1] and 65 nM under setting [2].
In the case of `Cn1cc(-c2cc(OCC(CO)CO)cc3c2-c2ccccc2C3(O)C(F)(F)F)cn1` (centres unmarked) [compound 622], the IC50 is, setting by setting: under setting [1], less than 100 nM; under setting [2], 33 nM.
In the case of `O=C(O)CCCn1cc(-c2cc(CO)cc3c2-c2ccccc2C3(O)C(F)(F)F)cn1` (centres unmarked) [compound 623], the IC50 was 100 to 1000 nM under setting [1] and 133 nM under setting [2].
As for `N#CCc1cc(Cl)cc2c1-c1ccccc1C2(O)C(F)(F)F` (centres unmarked) [compound 625], the IC50 is, setting by setting: under setting [3], more than 1000 nM; under setting [2], more than 1000 nM.
Consider `COc1cc(C(N)=O)c2c(c1)C(O)(C(F)(F)F)c1ccccc1-2` (centres unmarked) [compound 626], for which the IC50 is 100 to 1000 nM under setting [1] and 674 nM under setting [2].
Consider `COc1cc(CO)c2c(c1)C(O)(C(F)(F)F)c1ccccc1-2` (centres unmarked) [compound 627], for which the IC50 was more than 1000 nM under setting [3] and more than 1000 nM under setting [2].
Regarding `Cn1cc(-c2cc(OC(CO)CO)cc3c2-c2ccccc2C3(O)C(F)(F)F)cn1` (centres unmarked) [compound 628], the IC50 is, setting by setting: under setting [1], less than 100 nM; under setting [2], 58 nM.
With `CC(C)Cc1cc(-c2cnn(CCO)c2)c2c(c1)C(O)(C(F)(F)F)c1ccccc1-2` (centres unmarked) [compound 631], the IC50 by setting is: under setting [1], less than 100 nM; under setting [2], 62 nM.
On to `C#Cc1cc(C(N)=O)c2c(c1)C(O)(C(F)(F)F)c1ccccc1-2` (centres unmarked) [compound 632], for which the IC50 by setting is: under setting [1], 100 to 1000 nM; under setting [2], 195 nM.
For the molecule `CCc1cc(C(N)=O)c2c(c1)C(O)(C(F)(F)F)c1ccccc1-2` (centres unmarked) [compound 633], the IC50 by setting is: under setting [1], 100 to 1000 nM; under setting [2], 560 nM.
As to `CC[Si](CC)(CC)CCc1cc(C(N)=O)c2c(c1)C(O)(C(F)(F)F)c1ccccc1-2` (centres unmarked) [compound 634], the IC50 reads like this: under setting [1], 100 to 1000 nM; under setting [2], 100 nM.
On to `OCc1cc(Cl)cc2c1-c1ccccc1C2(O)C(F)(F)F` (centres unmarked) [compound 635], for which the IC50 was 100 to 1000 nM under setting [1] and 515 nM under setting [2].
Turning to `NC(=O)c1cc(Cl)cc2c1-c1ccccc1C2(O)C(F)(F)F` (centres unmarked) [compound 636], the IC50 runs as follows: under setting [1], 100 to 1000 nM; under setting [2], 239 nM.
Regarding `Cn1cc(-c2cc(CC(N)=O)c3c(c2)C(O)(C(F)(F)F)c2ccccc2-3)cn1` (centres unmarked) [compound 637], the IC50 reads like this: under setting [3], more than 1000 nM; under setting [2], more than 1000 nM.
As to `CC(C)(C)n1cc(-c2cc(CO)c3c(c2)C(O)(C(F)(F)F)c2ccccc2-3)cn1` (centres unmarked) [compound 638], the IC50 was 100 to 1000 nM under setting [1] and 127 nM under setting [2].
As to `CC(C)(C)n1cc(-c2cc(C(N)=O)c3c(c2)C(O)(C(F)(F)F)c2ccccc2-3)cn1` (centres unmarked) [compound 639], the IC50 is less than 100 nM under setting [1] and 63 nM under setting [2].
Taken in the same sequence, the figures for `NC(=O)c1cc(OCCO)cc2c1-c1ccccc1C2(O)C(F)(F)F` (centres unmarked) [compound 640] were 100 to 1000 nM and 732 nM.
As for `C#Cc1cc(CO)c2c(c1)C(O)(C(F)(F)F)c1ccccc1-2` (centres unmarked) [compound 641], the IC50 under setting [1] was in the range of 100 to 1000 nM and the IC50 under setting [2] turned out to be 510 nM.
Take `CCc1cc(CO)c2c(c1)C(O)(C(F)(F)F)c1ccccc1-2` (centres unmarked) [compound 642]: the IC50 reads like this: under setting [3], more than 1000 nM; under setting [2], more than 1000 nM.
Regarding `Cn1cc(-c2cc(CCO)c3c(c2)C(O)(C(F)(F)F)c2ccccc2-3)cn1` (centres unmarked) [compound 643], the IC50 under setting [1] lay in the range of 100 to 1000 nM and the IC50 under setting [2] was found to be 184 nM.
As for `O=C(c1cc(CO)c2c(c1)C(O)(C(F)(F)F)c1ccccc1-2)N1CC(O)C1` (centres unmarked) [compound 644], the IC50 under setting [1] fell in the range of 100 to 1000 nM and the IC50 under setting [2] was 130 nM.
`CC(C)Cn1cc(-c2cc(C(N)=O)c3c(c2)C(O)(C(F)(F)F)c2ccccc2-3)cn1` (centres unmarked) [compound 645]: the IC50 is, setting by setting: under setting [1], less than 100 nM; under setting [2], 37 nM.
For the molecule `CC(C)(C)Cn1cc(-c2cc(C(N)=O)c3c(c2)C(O)(C(F)(F)F)c2ccccc2-3)cn1` (centres unmarked) [compound 646], the IC50 reads like this: under setting [1], less than 100 nM; under setting [2], 40 nM.
Turning to `CC(C)Cc1cc(-c2cnn(C(CO)CO)c2)c2c(c1)C(O)(C(F)(F)F)c1ccccc1-2` (centres unmarked) [compound 648], the IC50 was less than 100 nM under setting [1] and 44 nM under setting [2].
`CC(C)Cn1cc(-c2cc(CO)c3c(c2)C(O)(C(F)(F)F)c2ccccc2-3)cn1` (centres unmarked) [compound 649]: the IC50 under setting [1] was less than 100 nM and the IC50 under setting [2] was determined as 37 nM.
As for `CC(C)(C)Cn1cc(-c2cc(CO)c3c(c2)C(O)(C(F)(F)F)c2ccccc2-3)cn1` (centres unmarked) [compound 650], the IC50 runs as follows: under setting [1], less than 100 nM; under setting [2], 36 nM.
Consider `C/C=C/c1cc(-c2cnn(C(CO)CO)c2)c2c(c1)C(O)(C(F)(F)F)c1ccccc1-2` (centres unmarked) [compound 651], for which the IC50 by setting is: under setting [1], less than 100 nM; under setting [2], 25 nM.
Taken in the same sequence, the figures for `CCCc1cc(-c2cnn(C(CO)CO)c2)c2c(c1)C(O)(C(F)(F)F)c1ccccc1-2` (centres unmarked) [compound 652] were less than 100 nM and 36 nM.
On to `CCc1cc(-c2cnn(C(CO)CO)c2)c2c(c1)C(O)(C(F)(F)F)c1ccccc1-2` (centres unmarked) [compound 653], for which the IC50 is less than 100 nM under setting [1] and 37 nM under setting [2].
Taken in the same sequence, the figures for `CC(C)c1cc(-c2cnn(C(CO)CO)c2)c2c(c1)C(O)(C(F)(F)F)c1ccccc1-2` (centres unmarked) [compound 654] were less than 100 nM and 55 nM.
Take `NC(=O)c1cc(CCCN2CCCC2=O)cc2c1-c1ccccc1C2(O)C(F)(F)F` (centres unmarked) [compound 655]: the IC50 was less than 100 nM under setting [1] and 73 nM under setting [2].
Take `O=C1CCCN1CCCc1cc(CO)c2c(c1)C(O)(C(F)(F)F)c1ccccc1-2` (centres unmarked) [compound 656]: the IC50 runs as follows: under setting [1], 100 to 1000 nM; under setting [2], 172 nM.
`NC(=O)c1cc(-c2cncnc2)cc2c1-c1ccccc1C2(O)C(F)(F)F` (centres unmarked) [compound 658]: the IC50 runs as follows: under setting [1], less than 100 nM; under setting [2], 71 nM.
On to `CC(C)(O)Cn1cc(-c2cc(CO)c3c(c2)C(O)(C(F)(F)F)c2ccccc2-3)cn1` (centres unmarked) [compound 661], for which the IC50 by setting is: under setting [1], less than 100 nM; under setting [2], 59 nM.
Turning to `NC(=O)c1cc(-c2cnn(CC3CCCCC3)c2)cc2c1-c1ccccc1C2(O)C(F)(F)F` (centres unmarked) [compound 662], the IC50 was less than 100 nM under setting [1] and 34 nM under setting [2].
Turning to `CC(C)(C)CCc1cc(-c2cnn(C(CO)CO)c2)c2c(c1)C(O)(C(F)(F)F)c1ccccc1-2` (centres unmarked) [compound 666], the IC50 under setting [1] is less than 100 nM and the IC50 under setting [2] is 27 nM.
Consider `N#Cc1ccc2c(c1)C(O)(C(F)(F)F)c1ccccc1-2` (centres unmarked) [compound 671], for which the IC50 reads like this: under setting [1], more than 1000 nM; under setting [2], 1440 nM.
Take `Cc1cc(-c2cnn(C(CO)(CO)CO)c2)c2c(c1)[C@@](O)(C(F)(F)F)c1ccccc1-2` [compound 707, (+)-2-hydroxymethyl-2-[4-(9-hydroxy-2-methyl-9-trifluoromethyl-9H-fluoren-4-yl)-pyrazol-1-yl]-propane-1,3-diol]: the IC50 runs as follows: under setting [1], less than 100 nM; (PDHK inhibitory activity IC50 (μmol/L)) 19 nM.
